# Where “and” joins values, the source holds several entries; their conditions need not be identical. Equal values may be shown once. Starred links: 1 amine or outer side, 2 acyl side, 3 side chain; linkers in the order of their positions; H or OH if unused. Non-standard residues stand in square brackets, D forms with d. Groups on a side chain read outwards from the residue. No end group written: not given here. *: point of attachment. C20 diacid = O=C(O)CCCCCCCCCCCCCCCCCCC(=O)*; γGlu = O=C(O)[C@H](CCC(=O)[*:2])N[*:1]; AEEA = NCCOCCOCC(=O)O; Aib = CC(C)(N)C(=O)O
# T1: human GIP receptor (GIPR) (human, UniProt P48546-1 22-466)
# T1 construct: human GIPR (NP_000155), untagged, expressed in HEK293 cells at low, medium or high density; also called glucose-dependent insulinotropic polypeptide receptor; source: HEK293 clonal cell lines, stably transfected (pcDNA3.1)
# T1 sequence (looked up): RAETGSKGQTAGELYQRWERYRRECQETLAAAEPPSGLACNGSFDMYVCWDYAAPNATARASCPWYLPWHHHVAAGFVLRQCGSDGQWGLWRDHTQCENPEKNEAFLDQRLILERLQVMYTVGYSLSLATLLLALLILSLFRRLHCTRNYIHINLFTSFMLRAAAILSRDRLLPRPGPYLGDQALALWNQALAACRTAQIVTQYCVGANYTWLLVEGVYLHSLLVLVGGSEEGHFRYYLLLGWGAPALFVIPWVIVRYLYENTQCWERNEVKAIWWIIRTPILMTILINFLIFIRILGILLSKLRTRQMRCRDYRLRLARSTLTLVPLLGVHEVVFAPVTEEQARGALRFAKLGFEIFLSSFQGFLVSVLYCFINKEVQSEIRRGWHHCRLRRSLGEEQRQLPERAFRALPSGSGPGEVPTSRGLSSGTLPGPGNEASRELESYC
# B1: Semaglutide (peptide)
# chain: HAEGTFTSDVSSYLEGQAAKEFIAWLVRGRG
# modifications: Aib at the 2nd residue (written X in the letters); C18 diacid-γGlu-(AEEA)2 on the lysine at the 20th residue
# Tests used:
# pancreatic islets = test: Pancreatic islet perifusion, insulin secretion; details: ex vivo perifusion, male mice, iAUC; GLP-1 300 pM, GIP 3 nM (after 1 μM Ex9), tirzepatide 1 nM
# [1] = native ligand, during meal induced incretin secretion; cited from earlier work
# GLP-1R [2] = target: T2, GLP-1R (Homo sapiens, UniProt P43220); test: ARRB2 recruitment, CHO-K1 PathHunter enzyme fragment complementation; format: cell-based
# T2 sequence (P43220 24-463): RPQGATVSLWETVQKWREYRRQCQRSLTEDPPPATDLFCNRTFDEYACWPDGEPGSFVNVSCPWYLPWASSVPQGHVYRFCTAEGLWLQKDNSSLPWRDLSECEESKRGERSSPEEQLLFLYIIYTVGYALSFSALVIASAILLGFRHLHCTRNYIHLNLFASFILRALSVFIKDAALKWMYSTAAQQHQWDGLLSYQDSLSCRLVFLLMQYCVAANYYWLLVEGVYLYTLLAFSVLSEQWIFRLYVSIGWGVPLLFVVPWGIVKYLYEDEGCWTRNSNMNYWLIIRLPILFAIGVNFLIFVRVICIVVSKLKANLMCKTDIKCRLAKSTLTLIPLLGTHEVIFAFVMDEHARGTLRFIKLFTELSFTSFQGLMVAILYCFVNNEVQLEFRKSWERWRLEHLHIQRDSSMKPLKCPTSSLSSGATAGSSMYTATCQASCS
# Description: ARRB2 recruitment to human GIPR and GLP-1R was quantified in CHO-K1 PathHunter cells expressing C-terminally fused ProLink1 receptors and Enzyme Acceptor fused ARRB2 from DiscoverX (Eurofins). […] Cell vials were thawed and added at equal volume in respective assay medium as previously stated. Recruitment of ARRB2 to activated receptors occurred at 37°C for 90 minutes, followed by cell lysis by the addition of 10 μL detection mixture containing β-galactosidase 93-0001 substrate to quantitate functional enzyme fragment complementation. Chemiluminescent signal was developed for 60 minutes at room temperature and quantified using an EnVision plate reader. Raw data were normalized to percent activation compared with control wells, and the curves were fit to the 4-parameter logistic model in Genedata Screener. As an alternative approach to measure β-arrestin recruitment, bioluminescent resonance energy transfer (BRET) was performed. […] Freestyle HEK cells (R79007, Thermo Fisher Scientific) were transfected in antibiotic-free media using Fugene-6 complexed in optiMEM (Thermo Fisher Scientific). […] Emission was measured at 460 nm (donor) and 610 nm (acceptor) wavelengths. The BRET ratio was calculated as acceptor emission divided by donor emission. […] Agonist-stimulated protein-to-protein interaction of 2 fusion molecules were detected with Nano-Glo substrate and standard luminescent detection. […]
# SNAP-tagged GLP-1R = target: T3, SNAP-tagged GLP-1R (Homo sapiens, UniProt P43220); test: Real-time internalization assay, SNAP-tagged receptor; format: cell-based; details: HEK293; read-out: internalization of SNAP-tagged GLP-1R, Emax relative to GLP-1
# T3 construct: expressed in transfected cells
# T3 sequence (P43220 24-463): as above
# GLP-1R [3] = target: T2, GLP-1R; test: On-cell Western internalization assay, HA-GLP-1R-EGFP HEK293; format: cell-based; parameters: expressed in transfected cells; details: HEK293, surface GLP-1R 30 minutes after ligand, normalized to 1 μM GLP-1(7-36); mean (SEM, n); read-out: GLP-1R internalization, maximum effect relative to GLP-1
# Description: For receptor internalization studies, DNA encoding human GIPR and GLP-1R with N-terminal 3X-HA epitope tags and C-terminal EGFP tags was constructed in pcDNA3.1.
# HEK293 cells stably expressing HA-GIPR-EFGP or HA–GLP-1R–EFGP clones were plated into poly-D-lysine–coated 96-well microplates and cultured until cells reached 80%–90% confluency. On the day of assay, growth media was removed, and cells were rinsed once with prewarmed starvation media (growth media without serum or antibiotics, supplemented with 0.1% casein) and equilibrated with fresh media for 1 hour at 37°C, 5% CO2. […] Fixative was removed, and cells were washed in PBS and blocked with Odyssey blocking buffer (Licor) for 1 hour.
# [4] = target: mouse GLP-1R–LgBiT (mouse) (UniProt O35659)
# Chain of mouse GLP-1R–LgBiT (mouse) (O35659 22-463): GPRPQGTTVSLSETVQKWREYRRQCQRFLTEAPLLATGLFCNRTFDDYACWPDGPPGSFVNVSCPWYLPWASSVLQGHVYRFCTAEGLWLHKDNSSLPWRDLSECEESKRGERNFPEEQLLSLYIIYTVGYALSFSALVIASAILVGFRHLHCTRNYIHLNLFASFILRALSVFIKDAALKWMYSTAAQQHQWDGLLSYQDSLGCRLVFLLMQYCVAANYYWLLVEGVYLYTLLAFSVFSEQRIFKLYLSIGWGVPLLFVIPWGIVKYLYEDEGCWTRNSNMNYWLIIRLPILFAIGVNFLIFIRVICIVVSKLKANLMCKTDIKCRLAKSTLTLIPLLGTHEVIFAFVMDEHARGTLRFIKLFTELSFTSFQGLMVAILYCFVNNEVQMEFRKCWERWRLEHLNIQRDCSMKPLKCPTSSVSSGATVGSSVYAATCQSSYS
# GLP-1R [5] = details: read-out: in vitro EC50; cited from earlier work
# Description: (§1) We recognize that calculating pRO values has caveats (see Methods) and propose its use mainly for generating hypotheses and as a tool to probe mechanistic biology. For perspective, though, when examining the pRO values of other ligands, we observe that GLP-1R occupancy is also relatively low (about 10%). Based on established data, this makes sense in terms of the in vivo sensitivity of the GLP-1R system. […] In humans, active GLP-1 and GI ...
# [6] = rodents, acute glucose challenge; read-out: in vivo EC50; cited from earlier work
# Description: as §1
# [7] = target: T1, human GIP receptor (GIPR); test: radioligand binding; competition with [125I]GIP(1-42)OH (GIPR) or [125I]GLP-1(7-36)NH2 (GLP-1R), ~0.12–0.20 nM, on membranes of HEK293 cells expressing the human receptor held on WGA-PVT SPA beads; 1.0 mM MgCl2, 2.5 mM CaCl2, 0.003% w/v Tween-20, 0.1% w/v bacitracin, 25 mM HEPES pH 7.4; 18 hours at room temperature; Ki by the Cheng-Prussoff correction; details: one partner purified
# [8] = target: T1, human GIP receptor (GIPR); test: cell-based or functional assay
# [9] = target: T1, human GIP receptor (GIPR); test: radioligand binding; details: one partner purified
molecule,measurement,setting,value
"CC[C@H](C)[C@H](NC(=O)[C@H](CO)NC(=O)[C@H](Cc1ccc(O)cc1)NC(=O)[C@H](CC(=O)O)NC(=O)[C@H](CO)NC(=O)[C@@H](NC(=O)[C@H](Cc1ccccc1)NC(=O)[C@@H](NC(=O)CNC(=O)[C@H](CCC(=O)O)NC(=O)[C@H](C)NC(=O)[C@@H](N)Cc1ccc(O)cc1)[C@@H](C)O)[C@@H](C)CC)C(=O)N[C@@H](C)C(=O)N[C@@H](CCSC)C(=O)N[C@@H](CC(=O)O)C(=O)N[C@@H](CCCCN)C(=O)N[C@H](C(=O)N[C@@H](Cc1c[nH]cn1)C(=O)N[C@@H](CCC(N)=O)C(=O)N[C@@H](CCC(N)=O)C(=O)N[C@@H](CC(=O)O)C(=O)N[C@@H](Cc1ccccc1)C(=O)N[C@H](C(=O)N[C@@H](CC(N)=O)C(=O)N[C@@H](Cc1c[nH]c2ccccc12)C(=O)N[C@@H](CC(C)C)C(=O)N[C@@H](CC(C)C)C(=O)N[C@@H](C)C(=O)N[C@@H](CCC(N)=O)C(=O)N[C@@H](CCCCN)C(=O)NCC(=O)N[C@@H](CCCCN)C(=O)N[C@@H](CCCCN)C(=O)N[C@@H](CC(N)=O)C(=O)N[C@@H](CC(=O)O)C(=O)N[C@@H](Cc1c[nH]c2ccccc12)C(=O)N[C@@H](CCCCN)C(=O)N[C@@H](Cc1c[nH]cn1)C(=O)N[C@@H](CC(N)=O)C(=O)N[C@H](C(=O)N[C@H](C(=O)N[C@@H](CCC(N)=O)C(N)=O)[C@@H](C)O)[C@@H](C)CC)C(C)C)[C@@H](C)CC [GIP(1-42), GIP(1-42)NH2]",insulin secretion of Arrb1βcell–/– islets compared with control islets,pancreatic islets,not different
"CC[C@H](C)[C@H](NC(=O)[C@H](Cc1ccccc1)NC(=O)[C@H](CCC(=O)O)NC(=O)[C@H](CCCCN)NC(=O)[C@H](C)NC(=O)[C@H](C)NC(=O)[C@H](CCC(N)=O)NC(=O)CNC(=O)[C@H](CCC(=O)O)NC(=O)[C@H](CC(C)C)NC(=O)[C@H](Cc1ccc(O)cc1)NC(=O)[C@H](CO)NC(=O)[C@H](CO)NC(=O)[C@@H](NC(=O)[C@H](CC(=O)O)NC(=O)[C@H](CO)NC(=O)[C@@H](NC(=O)[C@H](Cc1ccccc1)NC(=O)[C@@H](NC(=O)CNC(=O)[C@H](CCC(=O)O)NC(=O)[C@H](C)NC(=O)[C@@H](N)Cc1c[nH]cn1)[C@@H](C)O)[C@@H](C)O)C(C)C)C(=O)N[C@@H](C)C(=O)N[C@@H](Cc1c[nH]c2ccccc12)C(=O)N[C@@H](CC(C)C)C(=O)N[C@H](C(=O)N[C@@H](CCCCN)C(=O)NCC(=O)N[C@@H](CCCNC(=N)N)C(N)=O)C(C)C [GLP-1(7-36), GLP-1(7-36)NH2]",insulin secretion of Arrb1βcell–/– islets compared with control islets,pancreatic islets,secreted more insulin
same,Css (free): range of Cmax values,[1],5-15^E pM
CC[C@H](C)[C@H](NC(=O)[C@H](CC(C)C)NC(=O)[C@H](Cc1c[nH]c2ccccc12)NC(=O)[C@H](CCC(N)=O)NC(=O)[C@@H](NC(=O)[C@H](Cc1ccccc1)NC(=O)[C@H](C)NC(=O)[C@H](CCCCNC(=O)COCCOCCNC(=O)COCCOCCNC(=O)CC[C@H](NC(=O)CCCCCCCCCCCCCCCCCCC(=O)O)C(=O)O)NC(=O)[C@H](CCC(N)=O)NC(=O)[C@H](C)NC(=O)[C@@H](NC(=O)[C@H](CCCCN)NC(=O)[C@H](CC(=O)O)NC(=O)[C@H](CC(C)C)NC(=O)C(C)(C)NC(=O)[C@@H](NC(=O)[C@H](CO)NC(=O)[C@H](Cc1ccc(O)cc1)NC(=O)[C@H](CC(=O)O)NC(=O)[C@H](CO)NC(=O)[C@@H](NC(=O)[C@H](Cc1ccccc1)NC(=O)[C@@H](NC(=O)CNC(=O)[C@H](CCC(=O)O)NC(=O)C(C)(C)NC(=O)[C@@H](N)Cc1ccc(O)cc1)[C@@H](C)O)[C@@H](C)O)[C@@H](C)CC)[C@@H](C)CC)C(C)C)C(=O)N[C@@H](C)C(=O)NCC(=O)NCC(=O)N1CCC[C@H]1C(=O)N[C@@H](CO)C(=O)N[C@@H](CO)C(=O)NCC(=O)N[C@@H](C)C(=O)N1CCC[C@H]1C(=O)N1CCC[C@H]1C(=O)N1CCC[C@H]1C(=O)N[C@@H](CO)C(N)=O [Tirzepatide],Emax,GLP-1R [2],< 10%
same,Emax,SNAP-tagged GLP-1R,< 40%
same,Emax,GLP-1R [3],40%
Tirzepatide (LY3298176) (peptide),other,[4],6.6 nM and 2.4 nM
exendin-4,EC50,GLP-1R [5],0.26 nM
same,EC50,[6],0.04 nM
B1,Ki,[7],> 500 nM
same,"EC50 of cAMP accumulation, HEK293 cells with low density of human GIPR (1,700 receptors/cell)",[8],> 850 nM
same,"EC50 of cAMP accumulation, HEK293 cells with medium density of human GIPR (6,400 receptors/cell)",[8],> 100 nM
Y[Aib]EGTFTSDYSI[Aib]LDKIAQK([AEEA-AEEA-γGlu-C20 diacid])AFVQWLIAGGPSSGAPPPS-NH2 [Tirzepatide (LY3298176)],Ki,[9],0.163 nM

# Reference: publication PMC7526454 (JCI Insight, 2020)
